Data published in patent US20230346772A1, “COMBINATION TREATMENTS FOR WALDENSTROM'S MACROGLOBULINEMIA” (X4 Pharmaceuticals, Inc., priority 2019, published 2023).
Like-named read-outs stand apart in the source and are kept apart here.

How the values were obtained:
CXCR4 = CXCR4 (Homo sapiens, UniProt P61073)
Experimental: Dose selection for the planned Phase 1b study is based on available safety data and PD of CXCR4 inhibition. […] An intrapatient dose escalation scheme is used in this study: patients will have a dose escalation in 200-mg increments to a maximum dose of 600 mg QD with the objective of achieving maximum white blood cell (WBC) mobilization.

[1] = Phase 1/2 study in renal cell carcinoma, dose-limiting toxicities; type: in vivo, human
Experimental: Doses of mavorixafor up to 600 mg daily have been tested in other clinical trials. During a Phase 1/2 study in renal cell carcinoma, a 3-patient cohort received monotherapy with 600 mg mavorixafor with 2 DLTs reported. On review, one of these (hyperglycemia) occurred in a patient with undiagnosed diabetes mellitus and the other (acute kidney injury [AKI]) occurred in a patient with pre-existing renal dysfunction and other complicating factors. Six patients received the 600 mg mavorixafor dose together with axitinib. […] Patients with a high hemoglobin A1c (HbA1c) level or with renal dysfunction are excluded from this study for safety reasons.

neutrophil = assay: Pharmacodynamic response of neutrophil changes (ANC); design: species or system human; settings: in vivo
Text: This characteristic of mavorixafor, allows for intrapatient patient dose escalation and since the steady-state ANC response is achieved rapidly as doses are escalated, the 28-day treatment duration cycle is intended to ensure that steady-state changes in ANC counts are achieved at each dose level, thereby avoiding any potential carry-over effects of previous doses. In addition, any DLT events are attributed to the current dose regardless of duration, making it unlikely that an unsafe dose is selected based on the algorithm.

[2] = Terminal half-life of X4P-001; settings: in vivo
Solubility of X4P-001 = type: physicochemical
[3] = tested on: Waldenstrom's Macroglobulinemia; settings: treatment-naive WM patients, cited from earlier work
[4] = tested on: Waldenstrom's Macroglobulinemia; settings: previously treated WM patients, cited from earlier work
[5] = tested on: Waldenstrom's Macroglobulinemia; settings: cited from earlier work
[6] = Food effect on absorption
WBC count = settings: similar across neutrophils, monocytes, lymphocytes including B cells; cited from earlier work
CD19 B cells = settings: patients with WHIM who had mutations in CXCR4; cited from earlier work

Chain of CXCR4 (P61073 whole entry): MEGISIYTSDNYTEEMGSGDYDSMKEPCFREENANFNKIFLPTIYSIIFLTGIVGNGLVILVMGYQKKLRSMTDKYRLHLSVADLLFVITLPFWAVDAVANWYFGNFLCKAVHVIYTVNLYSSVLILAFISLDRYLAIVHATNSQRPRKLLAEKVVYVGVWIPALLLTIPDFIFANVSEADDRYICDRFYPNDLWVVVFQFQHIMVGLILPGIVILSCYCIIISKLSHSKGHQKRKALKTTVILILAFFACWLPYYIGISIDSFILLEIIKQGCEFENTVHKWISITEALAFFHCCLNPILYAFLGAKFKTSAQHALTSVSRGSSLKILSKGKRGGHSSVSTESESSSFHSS

For `NCCCCN(Cc1nc2ccccc2[nH]1)[C@H]1CCCc2cccnc21` [X4P-001], the “pharmacological activity of the dose” value (CXCR4; 200 mg starting dose, prior clinical trials) was “pharmacologically active”, the “tolerability of the dose” value (CXCR4; human, in vivo) was “well-tolerated” and the DLTs reported ([1]; 600 mg monotherapy, 3-patient cohort) was 2. The “patients reporting DLTs” value ([1]; 600 mg together with axitinib, six patients) was “Two of these patients reported DLTs”, the “pharmacodynamic response of neutrophil changes” value (neutrophil) was “rapid, occurring within hours to days” and the half-life [2] was 12 to 24 h. The solubility (Solubility of X4P-001; aqueous buffer, pH range 3.0 to 8.0, read-out: Solubility) was greater than 100 mg/mL and the solubility (Solubility of X4P-001; in water) was “only slightly soluble”.
For `C=CC(=O)N1CCC[C@@H](n2nc(-c3ccc(Oc4ccccc4)cc3)c3c(N)ncnc32)C1` [ibrutinib, 1-[(3R)-3-[4-amino-3-(4-phenoxyphenyl)-1Hpyrazolo[3,4-d]pyrimidin-1-yl]-1-piperidinyl]-2-propen-1-one], the “MR (major response)” value ([3]; All Patients) is given as 83%, the “VGPR (very good partial response)” value ([3]; All Patients) is given as 20% and the “MR (major response)” value ([3]; MYD88^L265P CXCR4^WHIM) is given as 71%. The “VGPR (very good partial response)” value ([3]; MYD88^L265P CXCR4^WHIM) was 7%, the “MR (major response)” value ([3]; MYD88^L265P CXCR4^WT) was 94% and the “VGPR (very good partial response)” value ([3]; MYD88^L265P CXCR4^WT) was 31%. The “MR (major response)” value ([4]; All Patients) was 78%, the “VGPR (very good partial response)” value ([4]; All Patients) was 29% and the “MR (major response)” value ([4]; MYD88^L265P CXCR4^WHIM) was 67%. For the same molecule, the “VGPR (very good partial response)” value ([4]; MYD88^L265P CXCR4^WHIM) was 10%, the “MR (major response)” value ([4]; MYD88^L265P CXCR4^WT) was 97% and the “VGPR (very good partial response)” value ([4]; MYD88^L265P CXCR4^WT) was 44%. The VGPR ([5]; patients with the MYD88^L265P CXCR4^WT mutations) was 44.4%, the VGPR ([5]; patients with the double mutations MYD88^L265P CXCR4^WHIM) was 9.5% and the “absorption when taken with food” value [6] was “increased”.
In the case of `c1cc(CN2CCCNCCNCCCNCC2)ccc1CN1CCCNCCNCCCNCC1` [plerixafor], the “maximum fold-increase in WBCs over baseline” value (WBC count) is listed as 3 fold and the “fold increase in CD19 B cells” value (CD19 B cells) is listed as “greater than 40 fold”.
